{
  "source": "patent US20250228761A1",
  "about": "“COMPOSITION COMPRISING A SURFACE-REACTED CALCIUM CARBONATE AND A TANNIN” (Omya International AG, priority 2021, published 2025)",
  "experiment": "In vitro measurement of antiperspirant effect (SOD4 device, Smart-Pore microchannels)",
  "settings": "80% hygrometry, 2 mg/cm^2 dose",
  "protocol": "In vitro measurement of antiperspirant activity was measured with an SOD4 device from Microfactory, France. The SOD4 device is an automated biomimetic system that imitates the sweating process. The device comprises (1) Smart-Pore™: a silicone microfluidic chip containing microchannels which mimic skin pores (number of pores per chip: 4; dimensions of the pores: 60 μm×60 μm×2 mm; material: polydimethylsiloxane); (2) a pressure system controlling the flow of sweat in the pores down to nanoliter volumes; (3) a climate chamber regulated in humidity/temperature to reproduce perspiration conditions; (4) an optical system to monitor and record the interaction between the antiperspirant and artificial sweat.\nKnown antiperspirants block sweat pores thereby reducing sweating of a subject. The blocking is caused by a precipitate or clot in the sweat pore which is formed by interaction of the antiperspirant with components of sweat. The SOD4 device mimics this process and allows for analyzing the interaction of an antiperspirant sample and artificial sweat in the microfluidic channel. The analysis includes, e.g. detection of precipitate/clot formation, measuring precipitate/clot formation time, and measuring pressure (bursting pressure) which is necessary for removing the precipitate/clot from the microchannel. […]",
  "data": [
    {"substance": "Aluminium chlorohydrate [Sample 4]", "values": [
      {"measurement": "Burst pressure (mbar)*", "setting": "average of the maximal pressure applied before unclogging of precipitate/clot from the microchannel, after one hour interaction with artificial sweat at 25° C.", "result": "699 +/− 34 mbar"},
      {"measurement": "Clot formation time", "setting": "average over all observed clots, artificial sweat, 25° C.", "result": 2047, "unit": "s"}
    ]}
  ]
}
